In brackets after ≈: the same amount, converted by molar mass. Several values for one entry are separate records, joined by “and”; a condition that tells them apart may be missing. Equal entries are not always repeated. Where two headings read alike, the source gives them in different places.
Legend:
male Wistar rats = assay: Oral administration of Compound-5 to rats: toxicity and Compound-1 in the blood; details: rat, in vivo
Experimental: Male Wistar rats (n=4) weighing about 200 g were employed and the concentration of Compound-1 contained in the serum was expressed in mean±SE (FIG. 9).
In FIG. 9, open circles show a case wherein Compound-5 was solubilized with HCO-60 and orally administered in a dose of 2 mg/kg.
Solid circles show a case wherein Compound-5 was suspended in an acacia solution and orally administered in a dose of 20 mg/kg. Per part of the serum collected with the passage of time, ethanol containing 1% of acetic acid was added and the mixture was allowed to stand in the dark at room temperature for 7 days. Then Compound-1 was determined by high performance liquid chromatography.
Open squares show a case wherein Compound-5 was suspended in an acacia solution and orally administered. Then the blood was collected at definite points and Compound-1 was determined by high performance liquid chromatography immediately thereafter. […] Separately, Compound-5 suspended in an acacia solution was orally administered to rats having been cannulated into the portal vein. Then the portal blood was collected with the passage of time and Compound-1 was determined.

bovine serum [1] = test system: bovine serum
Experimental: (§1) To recover such a compound in a free state from plasma, it is required to add a large amount of a water-miscible organic solvent (methanol, ethanol, acetone, acetonitrile, etc.) to the plasma, acidify the mixture (pH 3.0 or below) and then allow it to stand at room temperature for about 1 week. […] Ascochlorin, Compound-6 or Compound-14 is dissolved in a small amount of an organic solvent and added to serum.
(§2) At definite points, the serum was sampled and divided into 2 portions. Ten times as much acetonitrile was added to one of these portions and the mixture was centrifuged. Then the free compound in the serum was determined. To the other portion, 10 times as much acetonitrile containing 1% of acetic acid was added. After allowing to stand at room temperature for 1 week, the mixture was centrifuged and the free compound was determined (FIG. 10).

[2] = test system: rats with adjuvant arthritis; assay: Therapeutic effect on rat adjuvant arthritis; type: in vivo; details: for Inflammation score (5 grades, 1 normal to 5 disabled by swelling in both hind legs): 7 times, day 7
Experimental: Rats with arthritis employed in Experiment 1 were individuals which suffered from serious arthritis caused by the injection of an adjuvant 45 days ago and thus crawled on forelegs since they could not bend hind legs. Drug effects were evaluated by observing walking, observation with the naked eye of the severity of inflammation in hind legs and the volume of swelling in legs. To 19 SD male rats (weighing about 300 g), Freund's […] adjuvant containing dead tubercle bacillus Aoyama B strain was subcutaneously injected into the tail root to induce arthritis in hind legs. Compound-6 was suspended in a tragacanth gum solution and orally administered at a ratio of 0.5 ml/100 g body weight. Compound-6 was administered to 3 groups including the high-dose model (HM; 50 mg/kg), the medium-dose model (MM; 25 mg/kg) and the low-dose model (LM; 10 mg/kg). Administration was made once a day in morning continuously 7 times. During this period, the hind leg volume was measured at the initiation of the experiment and 2, 4 and 7 days thereafter. The volume change was calculated by referring the volume at the initiation of the experiment as to 100%. On the 7th day, the inflammation conditions in hind legs were evaluated in 5 grades with the naked eye.
Immediately after administration, the three Compound-6 groups were combined and divided again depending on the occurrence of arthritis (i.e., positive and negative groups). Then the data were compared with the data of the control group.

DOCA hypertensive rats = assay: Aneurysm formation in the mesenteric artery of DOCA hypertensive rats; type: in vivo, rat; set-up: Lesion index, individual rats / Lesion index, Avg: scale not given here; details: for Appearance frequency (node count/arteriole count×100), individual rats / Lesion index, individual rats / Appearance frequency, Avg / Lesion index, Avg / Node count, Avg / Node count, individual rats: 7 weeks; for Appearance frequency, Avg / Lesion index, Avg / Node count, Avg: 6 rats; for Node count, individual rats: counted thrice, average
Description: The compounds of the present invention show an effect of inhibiting periarteritis nodosa in a malignant hypertension model rat in which periarteritis nodosa arises in the mesenteric artery and progresses into aneurysm. Among aneurysms, those formed in the mesenteric artery can be treated quantitatively. Thus, the mesenteric artery was taken out and fixed with formalin. Then it was fat-stained and arterioles and aneurysms were counted thrice and the average aneurysm count per arteriole was calculated. To rats with renal hypofunction due to the excision of one kidney, […] saline, having a somewhat higher osmotic pressure than plasma, was given as drinking water and 10 mg/kg of deoxycorticosterone acetate (DOCA) (a mineral corticoid) was subcutaneously administered at intervals of 1 week. Twenty-four male Wistar rats were divided into 4 groups at random. After taking out the left kidney, each animal was allowed to stand and the operative wound was fused. […] The experiment was carried out for 7 weeks. Since the initiation of the experiment, the feed intake, water intake, urine, body weight and blood pressure of each group were measured once every three days.
The average blood pressure exceeded 180 mmHg in the 3rd week and attained 200 mmHg in the 4th week. […] In the 7th week, each animal was dissected and the mesenteric artery was taken out. After treating with formalin, the artery was fat-stained and aneurysms were counted. […] In the high-dose Compound-6 group, the average aneurysm count per arteriole was lowered to 0.27±0.05.
Arterioles and nodes in the mesenteric artery were each counted thrice and the average was calculated.
a) Appearance frequency=node count/arteriole count×100 (%).

bovine serum [3] = assay: Reaction with serum (Schiff base formation): free compound and recovery; details: After 24 hours
Experimental: as §1, §2

Solubility = type: physicochemical
Experimental: Subsequently, Compound-6 was added to the serum to examine the formation of a Schiff base in vitro. […] When Compound-6 dissolved in dimethyl sulfoxide at a high concentration was added in portions to bovine serum, Compound-6 was dissolved in the serum at a ratio of […] (i.e., 1000-fold) and the serum turned yellow depending on the concentration of Compound-6. When an organic solvent (ethanol, acetonitrile, etc.) was added to this yellow serum, the coloring matter was not dissolved in the organic solvent but precipitated as yellow serum protein. The organic solvent layer contained no Compound-6. However, Compound-6 was quantitatively recovered as an acetonitrile solution by adding acetonitrile containing 1% of acetic acid to this yellow precipitate and allowing the mixture to stand for 1 week. In a reaction between a protein and a drug molecule, there has been taken no consideration into the conversion into a novel compound via the formation of a covalent bond between the drug and serum protein in vivo. However, it is obvious that aldehyde group in the benzene ring of the compounds of the present invention and amino group of serum protein form a Schiff base on the basis of the following facts. (1) The compounds of the present invention cannot be detected by any usual methods from the serum of animals to which the compounds have been administered. (2) The compounds of the present invention are released by adding an acidified organic solvent in a large amount to the serum and allowing to stand at room temperature for about 1 week. (3) When added to serum in vitro, the compounds of the present invention are dissolved at a ratio as high as 1000-fold and can be recovered by the same method as used in recovering the compounds of the present invention from the serum of animals to which the compounds have been administered. (4) The serum of animals, to which the compounds have been administered, or serum containing the compounds of the present invention turns into yellow.

db/db mice = details: oral; cited from earlier work
[4] = three dose groups combined, total 14

3-[5-[l(R),2(S),6(S)-trimethyl-3-oxocylohexyl]-3-methyl-2,4-pentadienyl]-2,4-dihydroxy-5-chloro-6-methylbenzaldehyde [Compound-1]
toxicity when present in a free state in the blood (male Wistar rats): strong toxicity | free compound in serum (bovine serum [1]): scarcely detected

COc1c(Cl)c(C)c(C=O)c(O)c1C/C=C(C)/C=C/[C@@]1(C)[C@H](C)CCC(=O)[C@@H]1C [Compound-6, 4-O-methylASC]
Inflammation score (5 grades, 1 normal to 5 disabled by swelling in both hind legs) ([2]; HM group, 50 mg/kg oral once a day): 2.2 | Inflammation score (5 grades, 1 normal to 5 disabled by swelling in both hind legs) ([2]; LM group, 10 mg/kg oral once a day): 3.2 | Inflammation score (5 grades, 1 normal to 5 disabled by swelling in both hind legs) ([2]; MM group, 25 mg/kg oral once a day): 2.8 | walking of rats disabled by swelling in joint ([2]; after 1 week of oral administration): could walk again | Arthritis (+), number of rats [2, 4]: 7 | Arthritis (−), number of rats [2, 4]: 7 | Appearance frequency (node count/arteriole count×100), individual rats (DOCA hypertensive rats; 10 mg/kg/day): 25.89% and 20.56% and 27.27% and 274.91% and 33.35% and 15.00% | Lesion index, individual rats (DOCA hypertensive rats; 10 mg/kg/day): 1 (5×) and 4 | Appearance frequency, Avg (DOCA hypertensive rats; 10 mg/kg/day): 66.16 ± 41.83% | Lesion index, Avg (DOCA hypertensive rats; 10 mg/kg/day): 1.50 ± 0.50 | Node count, Avg (DOCA hypertensive rats; 10 mg/kg/day): 9.27 | Node count, individual rats (DOCA hypertensive rats; 10 mg/kg/day): 2.33 (2×) and 3.00 and 40.33 and 5.67 and 2.00 | Appearance frequency (node count/arteriole count×100), individual rats (DOCA hypertensive rats; 40 mg/kg/day): 7.89% and 3.19% and 16.67% and 36.59% and 25.62% and 28.87% | Lesion index, individual rats (DOCA hypertensive rats; 40 mg/kg/day): 1 | Appearance frequency, Avg (DOCA hypertensive rats; 40 mg/kg/day): 26.57 ± 5.24 % | Lesion index, Avg (DOCA hypertensive rats; 40 mg/kg/day): 1.00 ± 0.00 | Node count, Avg (DOCA hypertensive rats; 40 mg/kg/day): 2.67 | Node count, individual rats (DOCA hypertensive rats; 40 mg/kg/day): 1.00 and 0.33 and 2.00 and 5.00 and 3.33 and 4.33 | average aneurysm count per arteriole (DOCA hypertensive rats; high-dose group (40 mg/kg/day), 7th week): 0.27±0.05 | aneurysms per arteriole on average (DOCA hypertensive rats; low-dose group (10 mg/kg/day), 7th week): 0.66±0.41 | free compound in serum (bovine serum [3]): scarcely detected | dissolved in bovine serum at a ratio of (Solubility; added in portions from dimethyl sulfoxide solution): 800 µg/mL | solubility in serum relative to PBS (Solubility; bovine serum): 1000 fold | solubility (Solubility; phosphate buffer saline (PBS)): 0.8 µg/mL (≈ 1.91 µM)

CC(/C=C/[C@@]1(C)[C@H](C)CCC(=O)[C@@H]1C)=C\Cc1c(O)c(C=O)c(C)c(Cl)c1OCC(=O)O [Compound-14, 4-O-carboxymethylASC]
blood glucose level, serum lipid level and serum insulin level (db/db mice): significantly lowered | free compound in serum (bovine serum [3]): scarcely detected

CC(/C=C/C1(C)C(C)C=CC(=O)C1C)=C\Cc1c(O)c(Cl)c(C)c(C=O)c1O (centres unmarked) [Compound-26]
toxicity when present in a free state in the blood (male Wistar rats): strong toxicity

From patent publication US6605639B1, “Ligands of nuclear receptor” (Nuclear Receptor Research, Ltd., priority 1998, dated 2003)
